{"source": "patent US20260248799A1", "about": "“COMBINATIONS OF RETINALDEHYDE DEHYDROGENASE 1 (RALDH1) INHIBITORS AND IMMUNOSTIMULATORS AND METHODS USING SAME” (The Trustees of the University of Pennsylvania, priority 2023, published 2026)", "key": {"Huh1 tumors": {"tested_on": "Huh1 tumors", "test": "Huh1 tumors in nude mice", "assay_type": "in vivo, mouse", "settings": "huh1 in immunodeficient mice; i.p, 10 mg/kg every day", "description": "FIG. 27A: Huh1 tumor-bearing nude mice were treated with C86 (i.p, 10 mg/kg) every day. Three or more independent experiments with at least three replicates per sample type. Two-tailed T test. *p<0.05, **p<0.01, ***p<0.001. FIG. 27B: Equal numbers of Raldh1-KO Huh7 and parental Huh7 cells were seeded and viable cells counted over time. […] FIG. 27C: NU/J mice harboring flank Huh7 tumors were treated i.p with C86 daily or with liposomal chlodronate (CloLipo, 200 μl/mouse) every four days. Tumors were harvested 13 days post tumor induction and analyzed for the frequency (left graph) and number (right graph) of the macrophages (CD45+ F4/80+) under different treatment conditions (X-axis). Three or more independent experiments with at least three replicates per sample type. Two-tailed T test. *p<0.05, **p<0.01, ***p<0.001. FIG. 27D: Pictures depicting size differences amongst tumors in experiment outlined in FIG. 26G. […]\nCultured Huh7, Huh1, Hepa 1-6, Hep55, and FS (as indicated in figure legends) tumor cells were detached using 0.25% trypsin (Gibco, catalog #25200056), washed once with 1×PBS, and counted before implantation. […] Tumor dimensions were measured using a caliper starting at the day indicated in the accompanying figure legend and every two to three days thereafter; volume was calculated by using formula Length*Width^2/2. […]"}, "[1]": {"tested_on": "murine monocytes from bone marrow", "test": "Murine monocyte DC differentiation with SNU398 cells or conditioned media", "assay_type": "cell-based, mouse", "settings": "HCC cells pre-treated", "source_text": "FIGS. 22A-22E: RALDH1 inhibition blocks RA-mediated effects of HCC on monocyte differentiation. FIGS. 22A-22B: Circulating primary human monocytes from donors (FIG. 22A) or murine monocytes from bone marrow (FIG. 22B) were cocultured with SNU398 (Human HCC) cells or treated with SNU398-conditioned media (CM) in a DC differentiation system (GM-CSF and IL-4). Two-color histograms show the frequencies of DCs (CD11c^+CD1a^+ for human and CD11c^+MHCII^+ for mouse). The presence of SNU398 or its CM suppressed DC differentiation, which is reversed when SNU398 cells are treated with C86. Three or more independent experiments were performed with at least three replicates per experimental group. Unpaired t test, two-tailed. FIG. 22C: Huh7 (human HCC) cells were subcutaneously injected into flanks of NU/J mice. 12 days later the tumor size was about 50 mm^3 and C86 or vehicle treatment (10 mg/kg, i.p, daily injection) was started. […] The frequencies of the host (murine) DCs (CD45^+F4/80^−CD11C^+MHCII-high) and macrophages (CD45^+F4/80^+) are quantified in a bar graph. […] Shown are the representative FCM plot (histogram) and DC quantification (bar graph). […]\nMonocytes were isolated from bone marrow of C57BL/6 mice using the Mouse BM Monocyte Isolation Kit (Miltenyi Biotec) according to manufacturer's instructions. Purity of monocyte was assessed by flow cytometry using CD11b, Ly6C, and Ly6G. […]"}, "[2]": {"tested_on": "ATPase, Na+/K+, Heart, Pig", "test": "Safetyscreen: ATPase, Na+/K+", "assay_type": "biochemical", "settings": "10 μM"}, "Monoamine Oxidase MAO-A": {"biological_target": "T1, Monoamine Oxidase MAO-A (Homo sapiens, UniProt P21397)", "T1 construct": "Eurofins Cerep Panlabs (contract panel)", "T1 sequence (P21397 whole entry)": "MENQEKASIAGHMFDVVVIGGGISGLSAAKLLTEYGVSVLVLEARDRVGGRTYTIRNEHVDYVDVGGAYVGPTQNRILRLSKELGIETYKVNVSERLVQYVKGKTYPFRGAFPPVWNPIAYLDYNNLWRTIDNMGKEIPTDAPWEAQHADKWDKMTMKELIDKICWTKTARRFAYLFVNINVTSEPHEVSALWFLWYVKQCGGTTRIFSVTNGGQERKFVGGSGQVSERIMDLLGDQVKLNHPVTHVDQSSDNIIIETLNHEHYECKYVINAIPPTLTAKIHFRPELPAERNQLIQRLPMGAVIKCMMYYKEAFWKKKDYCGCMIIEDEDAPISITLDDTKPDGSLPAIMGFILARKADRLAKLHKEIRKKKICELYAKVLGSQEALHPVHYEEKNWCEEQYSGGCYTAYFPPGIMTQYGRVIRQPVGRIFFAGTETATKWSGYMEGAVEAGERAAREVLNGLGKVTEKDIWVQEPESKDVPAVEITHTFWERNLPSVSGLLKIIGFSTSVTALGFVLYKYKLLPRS", "test": "Safetyscreen: MAO-A", "assay_type": "biochemical", "settings": "read-out: % Inh. Monoamine Oxidase MAO-A"}, "Phosphodiesterase PDE3": {"tested_on": "Phosphodiesterase PDE3", "test": "Safetyscreen: PDE3", "assay_type": "biochemical, human", "settings": "10 μM"}, "[3]": {"tested_on": "Calcium Channel L-Type, Benzothiazepine", "test": "Safetyscreen: Ca channel L-type, benzothiazepine", "assay_type": "binding, rat", "settings": "10 μM"}, "[4]": {"tested_on": "Calcium Channel L-Type, Dihydropyridine", "test": "Safetyscreen: Ca channel L-type, dihydropyridine", "assay_type": "binding, rat", "settings": "10 μM"}, "Muscarinic M1": {"biological_target": "T2, Muscarinic M1 (Homo sapiens, UniProt P11229)", "T2 construct": "Eurofins Cereps Panlabs (contract panel)", "T2 sequence (P11229 whole entry)": "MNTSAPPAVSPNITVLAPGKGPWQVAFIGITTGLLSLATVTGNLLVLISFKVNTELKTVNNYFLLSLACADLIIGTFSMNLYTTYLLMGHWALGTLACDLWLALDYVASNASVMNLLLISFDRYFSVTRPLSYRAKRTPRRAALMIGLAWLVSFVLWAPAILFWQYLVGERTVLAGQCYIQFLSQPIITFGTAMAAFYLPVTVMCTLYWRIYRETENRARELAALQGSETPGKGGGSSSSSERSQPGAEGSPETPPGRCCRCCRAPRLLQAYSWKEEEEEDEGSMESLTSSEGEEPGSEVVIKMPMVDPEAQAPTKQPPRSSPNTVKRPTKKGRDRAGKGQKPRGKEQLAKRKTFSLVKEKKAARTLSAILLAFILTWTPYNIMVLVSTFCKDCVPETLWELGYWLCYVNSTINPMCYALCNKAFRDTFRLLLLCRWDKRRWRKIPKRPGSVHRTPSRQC", "test": "Safetyscreen: Muscarinic M1", "assay_type": "binding", "settings": "read-out: % Inh. Muscarinic M1"}}, "data": [{"smiles": "CS(=O)(=O)N1CCN(C(=O)c2cnc3ccc(F)cc3c2N2CCC(C#N)(c3ccccc3)CC2)CC1", "note": "[Compound C-86, 1-(6-fluoro-3-(4-(methylsulfonyl)piperazine-1-carbonyl)quinolin-4-yl)-4-phenylpiperidine-4-carbonitrile]", "values": [{"measurement": "tumor inhibition", "setting": "Huh1 tumors", "result": "significant tumor inhibition"}, {"measurement": "suppression of DC differentiation by HCC cells or CM", "setting": "[1]", "result": "reversed"}, {"measurement": "% Inh. ATPase, Na+/K+, Heart, Pig", "setting": "[2]", "result": 2, "unit": "%"}, {"measurement": "inhibition at 10 µM", "setting": "Monoamine Oxidase MAO-A", "result": 2, "unit": "%"}, {"measurement": "% Inh. Phosphodiesterase PDE3", "setting": "Phosphodiesterase PDE3", "result": "−23", "unit": "%"}, {"measurement": "% Inh. Calcium Channel L-Type, Benzothiazepine", "setting": "[3]", "result": "−3", "unit": "%"}, {"measurement": "% Inh. Calcium Channel L-Type, Dihydropyridine", "setting": "[4]", "result": 23, "unit": "%"}, {"measurement": "inhibition at 10 µM", "setting": "Muscarinic M1", "result": 3, "unit": "%"}]}]}
